Assay results reported in patent US20250367209A1 (SOUTHERN RESEARCH INSTITUTE, priority 2022, published 2025).

What follows are molecules tested against Tau-FynSH3 interaction (Homo sapiens (Human), UniProt P10636) (assay: Tau-FynSH3 AlphaScreen). Conditions: Table 2; Tau-FynSH3 inhibitory activity in the AlphaScreen; read-out: IC50.
Assay type: binding
Description: Human Fyn-SH3 domain with GST-tag at the N-terminus and a Strep-tag II ([…]) at the C-terminus (GST-Fyn-SH3-Strep) was cloned into pPR-IBA1 vector (IBA Lifesciences) (Cochran, et al. (2014) J. Biomol. Screen. 19, 1338-1349). Codon-optimized human 4R2N Tau for E. coli expression with a Strep-tag II at the C-terminus (His-Tau-Strep) was cloned into pET-28a(+) vector (Novagen). The constructs were transformed into E. coli BL-21(DE3) competent cells (Novagen). For GST-Fyn-SH3-Strep purification, a single colony was inoculated in Luria-Bertani (LB) broth at 37° C. overnight. 10 mL cell culture was added into 500 mL LB medium and cultured at 37° C. 0.5 mM Isopropyl β-D-1-thiogalactopyranoside (IPTG) was added into the culture when OD600 reached 0.7. Cells were further cultured at 25° C. for 4 hours and harvested. Cell pellet was resuspended in lysis buffer (20 mM Tris pH 7.9, 300 mM NaCl, 1 mM TCEP) with 1 tablet of EDTA-free protease inhibitors (ThermoFisher) and 1 mg/ml lysozyme. Cells were disrupted by sonication and debris was removed by centrifugation at 9500 rpm for 1 hour. Supernatant was loaded onto a glutathione-sepharose column (Cytiva). The column was washed in lysis buffer and protein eluted in lysis buffer containing 25 mM reduced glutathione. For His-Tau-Strep protein purification, cells were inoculated in LB broth medium and cultured at 37° C. overnight. A 10 mL overnight culture was added to 500 mL of auto-induction medium (Studier, F. W. (2005) Protein Expr Purif 41, 207-34) and cells were cultured at 37° C. for about 5 hours. The temperature was lowered to 18° C., and cells were cultured overnight. Cells were harvested and resuspended in lysis buffer with 20 mM imidazole, protease inhibitors, and lysozyme. Cells were disrupted by sonication and cell pellets were spun down at 9500 rpm for 1 hour. Supernatant was loaded onto Ni-NTA column (Cytiva) and the column was washed in lysis buffer with 20 mM imidazole. His-Tau-Strep protein was eluted in lysis buffer containing 400 mM imidazole. Both eluted GST-Fyn-SH3-Strep and His-Tau-Strep protein solutions were passed through G-25 desalting column (Cytiva) with lysis buffer and loaded onto high capacity Strep-Tactin column (IBA Lifesciences). The columns were washed in Buffer W (IBA Life sciences) and proteins were eluted in Buffer E (IBA life sciences). The eluted proteins were passed through G-25 desalting column again. Both GST-Fyn-Strep and His-Tau-Strep proteins were concentrated and diluted 1:1 in ethylene glycol as a cryoprotectant for storage at −80° C.
AlphaScreen was conducted with 10 µg/mL of glutathione donor beads (PerkinElmer, Waltham, MA) and nickel chelate acceptor beads (PerkinElmer) in 10 mM Bis-Tris (pH 7.0), 1 mM TCEP, 0.02% casein, and 0.1% Tween-20. Compounds were plated first followed by addition of one the proteins at 600 nM and incubation for 30 min. The second protein was added and incubated for 30 mn, then the beads were added simultaneously and the final mixture was incubated for 2 hours. Experiments were conducted in 384-well plates (6007290; PerkinElmer) and results were read on a PHERAstar plate reader (BMG Labtech, Cary, NC).
˜50,000 compounds from the Enamine and Southern Research libraries were screened to identify Tau-FynSH3 interaction inhibitors using an AlphaScreen assay (Cochran, et al. (2014) J. Biomol. Screen. 19, 1338-1349). Compounds that were >3 standard deviations above mean inhibition were selected, yielding 1,852 hits (FIG. 1A). […]. These 39 compounds were tested in a live-cell BRET assay to measure Tau-Fyn interaction in cells. […]. Screen. 19, 1338-1349).

Chain of Tau-FynSH3 interaction (P10636 other isoform, or with tags, fused parts or gaps): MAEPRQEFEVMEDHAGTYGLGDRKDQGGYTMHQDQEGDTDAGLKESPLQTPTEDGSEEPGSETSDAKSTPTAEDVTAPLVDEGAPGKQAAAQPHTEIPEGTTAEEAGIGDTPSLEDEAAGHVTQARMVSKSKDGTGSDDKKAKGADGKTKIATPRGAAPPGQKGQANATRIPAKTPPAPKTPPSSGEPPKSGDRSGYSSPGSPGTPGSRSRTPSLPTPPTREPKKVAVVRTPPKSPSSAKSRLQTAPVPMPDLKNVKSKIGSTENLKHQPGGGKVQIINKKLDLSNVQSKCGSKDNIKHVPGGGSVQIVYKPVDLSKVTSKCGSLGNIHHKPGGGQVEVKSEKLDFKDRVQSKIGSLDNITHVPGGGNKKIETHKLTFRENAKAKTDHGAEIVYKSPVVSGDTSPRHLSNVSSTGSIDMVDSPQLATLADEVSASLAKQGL

Row | Structure (SMILES) | IC50
1 | O=C(CCN1C(=O)COc2ccccc21)Nc1nnc(-c2ccccn2)[nH]1 [compound 43, 3-(3-Oxo-2,3-DIHYDRO-4H-BENZO[B][1,4]OXAZIN-4-YL)-N-(5-(PYRIDIN-2-YL)-4H-1,2,4-TRIAZOL-3-YL)PROPANAMIDE] | > 100 µM

Same assay, conditions: Table 3

Row | Structure (SMILES) | Alpha screen IC50 (μM)
2 | O=C(CN1C(=O)CSc2ccccc21)Nc1nnc(-c2cccnc2)[nH]1 [compound 24, 2-(3-OXO-2,3-DIHYDRO-4H-BENZO[B][1,4]THIAZIN-4-YL)-N-(5-(PYRIDIN-3-YL)-4H-1,2,4-TRIAZOL-3-YL)ACETAMIDE] | Inactive
3 | O=C(CN1C(=O)CSc2ccccc21)Nc1nnc(-c2ccncc2)[nH]1 [compound 25, 2-(3-Oxo-2,3-DIHYDRO-4H-BENZO[B][1,4]THIAZIN-4-YL)-N-(5-(PYRIDIN-4-YL)-4H-1,2,4-TRIAZOL-3-YL)ACETAMIDE] | Inactive
4 | O=C1COc2ccccc2N1Cc1nnc(-c2ccccn2)[nH]1 [compound 28, 4-((5-(PYRIDIN-2-YL)-4H-1,2,4-TRIAZOL-3-YL)METHYL)-2H-BENZO[B][1,4]OXAZIN-3(4H)-ONE] | Inactive
5 | O=C1CCc2ccccc2N1Cc1nnc(-c2ccccn2)[nH]1 [compound 29, 1-((5-(PYRIDIN-2-YL)-4H-1,2,4-TRIAZOL-3-YL)METHYL)-3,4-DIHYDROQUINOLIN-2(1H)-ONE] | Inactive
6 | O=C(CCN1C(=O)CSc2ccccc21)Nc1ccccc1C(F)(F)F [compound 36, 3-(3-OXO-2,3-DIHYDRO-4H-BENZO[B][1,4]THIAZIN-4-YL)-N-(2-(TRIFLUOROMETHYL)PHENYL) PROPANAMIDE] | Inactive
7 | O=C(CCN1C(=O)CSc2ccccc21)Nc1ccc(-c2ccccn2)cc1 [compound 38, 3-(3-Oxo-2,3-DIHYDRO-4H-BENZO[B][1,4]THIAZIN-4-YL)-N-(4-(PYRIDIN-2-YL)PHENYL)PROPANAMIDE] | Inactive
8 | O=C(CCN1C(=O)CSc2ccccc21)Nc1ccc(-c2ccccc2)cc1 [compound 39, N-([1,1′-BIPHENYL]-4-YL)-3-(3-Oxo-2,3-DIHYDRO-4H-BENZO[B][1,4]THIAZIN-4-YL)PROPANAMIDE] | Inactive
9 | O=C(CCN1C(=O)CSc2ccccc21)Nc1nnn[nH]1 [compound 40, 3-(3-OXO-2,3-DIHYDRO-4H-BENZO[B][1,4]THIAZIN-4-YL)-N-(1H-TETRAZOL-5-YL)PROPANAMIDE] | Inactive
10 | O=C(CCN1C(=O)CSc2ccccc21)Nc1ccc(-c2ncc[nH]2)cc1 [compound 41, N-(4-(1H-IMIDAZOL-2-YL)PHENYL)-3-(3-Oxo-2,3-DIHYDRO-4H-BENZO[B][1,4]THIAZIN-4-YL)PROPANAMIDE] | Inactive
11 | O=C(CCN1C(=O)CSc2ccccc21)Nc1ccc(-c2cncnc2)cc1 [compound 42, 3-(3-OXO-2,3-DIHYDRO-4H-BENZO[B][1,4]THIAZIN-4-YL)-N-(4-(PYRIMIDIN-5-YL)PHENYL) PROPANAMIDE] | Inactive
12 | O=C(CCN1C(=O)COc2ccccc21)Nc1nnc(-c2ccccn2)[nH]1 [compound 43, 3-(3-Oxo-2,3-DIHYDRO-4H-BENZO[B][1,4]OXAZIN-4-YL)-N-(5-(PYRIDIN-2-YL)-4H-1,2,4-TRIAZOL-3-YL)PROPANAMIDE] | Inactive

Same assay, conditions: Table 3; read-out: Alpha screen IC50

Row | Structure (SMILES) | IC50
13 | O=C(CCN1C(=O)CSc2ccc(Cl)cc21)Nc1nnc(-c2ccccn2)[nH]1 [compound 10, 3-(6-CHLORO-3-OXO-2H-BENZO[B][1,4]THIAZIN-4(3H)-YL)-N-(5-(PYRIDIN-2-YL)-4H-1,2,4-TRIAZOL-3-YL)PROPANAMIDE] | 6.78 µM
14 | O=C(CCN1C(=O)CSc2cc(C(F)(F)F)ccc21)Nc1nnc(-c2ccccn2)[nH]1 [compound 11, 3-(3-Oxo-7-(TRIFLUOROMETHYL)-2H-BENZO[B][1,4]THIAZIN-4(3H)-YL)-N-(5-(PYRIDIN-2-YL)-4H-1,2,4-TRIAZOL-3-YL)PROPANAMIDE] | 3.45 µM
15 | O=C(CN1C(=O)CSc2cc(C(F)(F)F)ccc21)Nc1nnc(-c2ccccn2)[nH]1 [compound 17, 2-(3-OXO-7-(TRIFLUOROMETHYL)-2H-BENZO[B][1,4]THIAZIN-4(3H)-YL)-N-(5-(PYRIDIN-2-YL)-4H-1,2,4-TRIAZOL-3-YL)ACETAMIDE] | 5.42 µM
16 | O=c1sc2ccccc2n1Cc1nnc(-c2ccccn2)[nH]1 [compound 30, 3-((5-(PYRIDIN-2-YL)-4H-1,2,4-TRIAZOL-3-YL)METHYL)BENZO[D]THIAZOL-2(3H)-ONE] | 10.6 µM
